Measured values published in ChEMBL document CHEMBL3885861, “Open TG-GATES”.

Species: Rattus norvegicus
Assay: Open TG-GATES - Regimen: Daily Repeat
Format: toxicity, organism-based, Sprague-Dawley
Set-up: regimen Daily Repeat, gender Male, age 6 weeks
Details: in vivo, po, 60 mg/kg, route gavage, dose level Middle; for APTT / Bas / Eos / Fbg / Hb / Ht / Lym / MCH / MCHC / MCV / Mono / Neu / PT / Plat / RBC / Ret / WBC: tissue Blood; for KIDNEY_L / KIDNEY_R / KIDNEY_TOTAL: tissue Kidney; for LIVER: tissue Liver; for A/G / ALP / ALT / AST / BUN / CRE / Ca / Cl / DBIL / GLC / IP / K / LDH / Na / PL / RALB / TBIL / TC / TG / TP / gamma-GTP: tissue Plasma

Work on `CCc1oc2ccccc2c1C(=O)c1cc(Br)c(O)c(Br)c1` [BENZBROMARONE] yielded a TERMINAL_BW (72 h, time 3 day) of 238.9 g, an APTT (72 h, time 3 day) of 16.6 s and a Bas (72 h, time 3 day) of 0%. For the same compound, the Eos (72 h, time 3 day) was 1%, the Fbg (72 h, time 3 day) was 234.4 mg/dL and the Hb (72 h, time 3 day) was 13.5 g/dL. It also gave a Ht (72 h, time 3 day) of 40%, a Lym (72 h, time 3 day) of 76.4% and an MCH (72 h, time 3 day) of 21.6 pg. It also gave an MCHC (72 h, time 3 day) of 33.8%, an MCV (72 h, time 3 day) of 63.7 fL and a Mono (72 h, time 3 day) of 7.2%. It also gave a Neu (72 h, time 3 day) of 15.8%, a PT (72 h, time 3 day) of 11.6 s and a Plat (72 h, time 3 day) of 109.3 x10_4/uL. It also gave an RBC (72 h, time 3 day) of 628.4 x10_4/ul, a Ret (72 h, time 3 day) of 7.7% and a WBC (72 h, time 3 day) of 107.1 x10_2/uL. The KIDNEY_L (72 h, time 3 day) was 1.1 g, the KIDNEY_R (72 h, time 3 day) was 1.1 g and the KIDNEY_TOTAL (72 h, time 3 day) was 2.1 g. The LIVER (72 h, time 3 day) was 14.3 g, the A/G (72 h, time 3 day) was 2 and the ALP (72 h, time 3 day) was 793.8 IU/L. For the same compound, the ALT (72 h, time 3 day) was 33.6 IU/L, the AST (72 h, time 3 day) was 62.2 IU/L and the BUN (72 h, time 3 day) was 18 mg/dL. It also gave a CRE (72 h, time 3 day) of 0.6 mg/dL, a Ca (72 h, time 3 day) of 10.3 mg/dL and a Cl (72 h, time 3 day) of 106.2 meq/L. It also gave a DBIL (72 h, time 3 day) of 0.014 mg/dL, a GLC (72 h, time 3 day) of 190 mg/dL and an IP (72 h, time 3 day) of 7.8 mg/dL. The K (72 h, time 3 day) was 4.5 meq/L, the LDH (72 h, time 3 day) was 104.4 IU/L and the Na (72 h, time 3 day) was 140.2 meq/L. It also gave a PL (72 h, time 3 day) of 138 mg/dL, an RALB (72 h, time 3 day) of 4 g/dL and a TBIL (72 h, time 3 day) of 0.3 mg/dL. It also gave a TC (72 h, time 3 day) of 76.4 mg/dL, a TG (72 h, time 3 day) of 62.8 mg/dL and a TP (72 h, time 3 day) of 5.9 g/dL. The gamma-GTP (72 h, time 3 day) was 0.8 IU/L, the TERMINAL_BW ([…], time 7 day) was 264.4 g and the TERMINAL_BW ([…], time 14 day) was 327 g. For the same compound, the TERMINAL_BW ([…], time 28 day) was 383.7 g, the APTT ([…], time 7 day) was 17.8 s and the Bas ([…], time 7 day) was 0%. For the same compound, the Eos ([…], time 7 day) was 1.2%, the Fbg ([…], time 7 day) was 234.6 mg/dL and the Hb ([…], time 7 day) was 14.4 g/dL. It also gave a Ht ([…], time 7 day) of 42.8%, a Lym ([…], time 7 day) of 80.8% and an MCH ([…], time 7 day) of 21.3 pg. For the same compound, the MCHC ([…], time 7 day) was 33.7%, the MCV ([…], time 7 day) was 63.3 fL and the Mono ([…], time 7 day) was 6.4%. The Neu ([…], time 7 day) was 11%, the PT ([…], time 7 day) was 12.2 s and the Plat ([…], time 7 day) was 119.4 x10_4/uL. It also gave an RBC ([…], time 7 day) of 675.2 x10_4/ul, a Ret ([…], time 7 day) of 5.6% and a WBC ([…], time 7 day) of 106.8 x10_2/uL. It also gave an APTT ([…], time 14 day) of 17.5 s, a Bas ([…], time 14 day) of 0% and an Eos ([…], time 14 day) of 1%. For the same compound, the Fbg ([…], time 14 day) was 237 mg/dL, the Hb ([…], time 14 day) was 14.5 g/dL and the Ht ([…], time 14 day) was 43.2%. It also gave a Lym ([…], time 14 day) of 79.4%, an MCH ([…], time 14 day) of 21.1 pg and an MCHC ([…], time 14 day) of 33.5%. It also gave an MCV ([…], time 14 day) of 63.1 fL, a Mono ([…], time 14 day) of 7% and a Neu ([…], time 14 day) of 12.4%. The PT ([…], time 14 day) was 12.1 s, the Plat ([…], time 14 day) was 110.5 x10_4/uL and the RBC ([…], time 14 day) was 685.4 x10_4/ul. It also gave a Ret ([…], time 14 day) of 4.6%, a WBC ([…], time 14 day) of 129.3 x10_2/uL and an APTT ([…], time 28 day) of 18.4 s. It also gave a Bas ([…], time 28 day) of 0%, an Eos ([…], time 28 day) of 1.6% and a Fbg ([…], time 28 day) of 232.6 mg/dL. For the same compound, the Hb ([…], time 28 day) was 15.2 g/dL, the Ht ([…], time 28 day) was 45.8% and the Lym ([…], time 28 day) was 84.2%. For the same compound, the MCH ([…], time 28 day) was 19.3 pg, the MCHC ([…], time 28 day) was 33.1% and the MCV ([…], time 28 day) was 58.2 fL. The Mono ([…], time 28 day) was 6%, the Neu ([…], time 28 day) was 8.8% and the PT ([…], time 28 day) was 12.3 s. For the same compound, the Plat ([…], time 28 day) was 107.4 x10_4/uL, the RBC ([…], time 28 day) was 787.4 x10_4/ul and the Ret ([…], time 28 day) was 2.8%. The WBC ([…], time 28 day) was 139.8 x10_2/uL, the KIDNEY_L ([…], time 7 day) was 1.2 g and the KIDNEY_R ([…], time 7 day) was 1.2 g. For the same compound, the KIDNEY_TOTAL ([…], time 7 day) was 2.4 g, the KIDNEY_L ([…], time 14 day) was 1.4 g and the KIDNEY_R ([…], time 14 day) was 1.3 g. For the same compound, the KIDNEY_TOTAL ([…], time 14 day) was 2.7 g, the KIDNEY_L ([…], time 28 day) was 1.5 g and the KIDNEY_R ([…], time 28 day) was 1.5 g. For the same compound, the KIDNEY_TOTAL ([…], time 28 day) was 2.9 g, the LIVER ([…], time 7 day) was 16.1 g and the LIVER ([…], time 14 day) was 20.1 g. The LIVER ([…], time 28 day) was 21.5 g, the A/G ([…], time 7 day) was 2.4 and the ALP ([…], time 7 day) was 869.6 IU/L. It also gave an ALT ([…], time 7 day) of 28 IU/L, an AST ([…], time 7 day) of 57 IU/L and a BUN ([…], time 7 day) of 20 mg/dL. The CRE ([…], time 7 day) was 0.6 mg/dL, the Ca ([…], time 7 day) was 10.5 mg/dL and the Cl ([…], time 7 day) was 107.4 meq/L. The DBIL ([…], time 7 day) was 0 mg/dL, the GLC ([…], time 7 day) was 186.8 mg/dL and the IP ([…], time 7 day) was 7.8 mg/dL. For the same compound, the K ([…], time 7 day) was 5 meq/L, the LDH ([…], time 7 day) was 96.2 IU/L and the Na ([…], time 7 day) was 139.7 meq/L. For the same compound, the PL ([…], time 7 day) was 154 mg/dL, the RALB ([…], time 7 day) was 4.4 g/dL and the TBIL ([…], time 7 day) was 0.3 mg/dL. The TC ([…], time 7 day) was 82.6 mg/dL, the TG ([…], time 7 day) was 80 mg/dL and the TP ([…], time 7 day) was 6.3 g/dL. The gamma-GTP ([…], time 7 day) was 0.2 IU/L, the A/G ([…], time 14 day) was 2.1 and the ALP ([…], time 14 day) was 872.6 IU/L. For the same compound, the ALT ([…], time 14 day) was 29.4 IU/L, the AST ([…], time 14 day) was 57.8 IU/L and the BUN ([…], time 14 day) was 20.2 mg/dL. The CRE ([…], time 14 day) was 0.6 mg/dL, the Ca ([…], time 14 day) was 10.5 mg/dL and the Cl ([…], time 14 day) was 106.3 meq/L. For the same compound, the DBIL ([…], time 14 day) was 0.01 mg/dL, the GLC ([…], time 14 day) was 191.4 mg/dL and the IP ([…], time 14 day) was 7.6 mg/dL. It also gave a K ([…], time 14 day) of 4.7 meq/L, an LDH ([…], time 14 day) of 97.4 IU/L and a Na ([…], time 14 day) of 140.3 meq/L. For the same compound, the PL ([…], time 14 day) was 156.4 mg/dL, the RALB ([…], time 14 day) was 4.5 g/dL and the TBIL ([…], time 14 day) was 0.3 mg/dL. The TC ([…], time 14 day) was 85.6 mg/dL, the TG ([…], time 14 day) was 85.8 mg/dL and the TP ([…], time 14 day) was 6.6 g/dL. For the same compound, the gamma-GTP ([…], time 14 day) was 0.8 IU/L, the A/G ([…], time 28 day) was 1.9 and the ALP ([…], time 28 day) was 605.2 IU/L. For the same compound, the ALT ([…], time 28 day) was 34 IU/L, the AST ([…], time 28 day) was 54 IU/L and the BUN ([…], time 28 day) was 19.2 mg/dL. The CRE ([…], time 28 day) was 0.6 mg/dL, the Ca ([…], time 28 day) was 9.9 mg/dL and the Cl ([…], time 28 day) was 108.4 meq/L. It also gave a DBIL ([…], time 28 day) of 0.016 mg/dL, a GLC ([…], time 28 day) of 185.2 mg/dL and an IP ([…], time 28 day) of 6.9 mg/dL. For the same compound, the K ([…], time 28 day) was 4.5 meq/L, the LDH ([…], time 28 day) was 147.4 IU/L and the Na ([…], time 28 day) was 141 meq/L. The PL ([…], time 28 day) was 144.6 mg/dL, the RALB ([…], time 28 day) was 4.3 g/dL and the TBIL ([…], time 28 day) was 0.2 mg/dL. For the same compound, the TC ([…], time 28 day) was 84.4 mg/dL, the TG ([…], time 28 day) was 75.4 mg/dL and the TP ([…], time 28 day) was 6.6 g/dL. For the same compound, the gamma-GTP ([…], time 28 day) was 1 IU/L.
